Patent publication US20120225061A1, “TETRASUBSTITUTED CYCLOHEXYL COMPOUNDS AS KINASE INHIBITORS” (priority 2011, published 2012)

Legend:
[1] = target: Pim2 kinase (Homo sapiens, UniProt Q9P1W9); test: Pim2 AlphaScreen assay (high ATP)
[2] = target: Pim3 kinase (Homo sapiens, UniProt Q86V86); test: Pim3 AlphaScreen assay (high ATP)
[3] = system: KMS11 (human myeloma cell line); test: Cell proliferation assay (CellTiter-Glo) in KMS11 cells; format: cell-based; settings: KMS-11, 72 h, Table 5, 3 days, read-out: KMS11-luc EC50
Protocol: KMS11 (human myeloma cell line), were cultured in IMDM supplemented with 10% FBS, sodium pyruvate and antibiotics. Cells were plated in the same medium at a density of 2000 cells per well into 96 well tissue culture plates, with outside wells vacant, on the day of assay.
Test compounds supplied in DMSO were diluted into DMSO at 500 times the desired final concentrations before dilution into culture media to 2 times final concentrations.
After 3 days plates were equilibrated to room temperature and equal volume of CellTiter-Glow Reagent (Promega) was added to the culture wells. The plates were agitated briefly and luminescent signal was measured with luminometer.

[4] = target: Pim1 kinase (Homo sapiens, UniProt P11309); test: Pim1 AlphaScreen assay (high ATP)
Chain of Pim1 kinase (P11309 whole entry): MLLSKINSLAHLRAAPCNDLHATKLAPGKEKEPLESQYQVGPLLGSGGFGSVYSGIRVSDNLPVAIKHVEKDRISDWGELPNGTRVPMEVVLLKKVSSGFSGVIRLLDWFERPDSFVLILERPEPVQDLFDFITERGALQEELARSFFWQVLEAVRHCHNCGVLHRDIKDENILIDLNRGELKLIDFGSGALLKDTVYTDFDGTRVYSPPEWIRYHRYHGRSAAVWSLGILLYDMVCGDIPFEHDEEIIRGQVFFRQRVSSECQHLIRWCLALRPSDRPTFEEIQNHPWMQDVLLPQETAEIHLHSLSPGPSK
Protocol: The activity of Pim 1, Pim 2, & Pim 3 is measured using a homogeneous bead based system quantifying the amount of phosphorylated peptide substrate resulting from kinase-catalyzed phosphoryl transfer to a peptide substrate. Compounds to be tested are dissolved in 100% DMSO and directly distributed to a white 384-well plate at 0.25 μl per well. […] This is followed by the addition of 5 μl/well of Pim 1, Pim 2 or Pim 3 kinase in assay buffer (concentrations described below). Final assay concentrations (described below) are in 2.5% DMSO. The reactions are performed for ˜2 hours, then stopped by the addition of 10 μl of 0.75 μg/ml anti-phospho Ser/Thr antibody (Cell Signaling), 10 μg/ml Protein A AlphaScreen beads (Perkin Elmer), and 10 μg/ml streptavidin coated AlphaScreen beads in stop/detection buffer (50 mM EDTA, 95 mM Tris, pH=7.5, 0.01% Tween-20). The stopped reactions are incubated overnight in the dark. The phosphorylated peptide is detected via an oxygen anion initiated chemiluminescence/fluorescence cascade using the Envision plate reader (Perkin Elmer).

Chain of Pim2 kinase (Q9P1W9 whole entry): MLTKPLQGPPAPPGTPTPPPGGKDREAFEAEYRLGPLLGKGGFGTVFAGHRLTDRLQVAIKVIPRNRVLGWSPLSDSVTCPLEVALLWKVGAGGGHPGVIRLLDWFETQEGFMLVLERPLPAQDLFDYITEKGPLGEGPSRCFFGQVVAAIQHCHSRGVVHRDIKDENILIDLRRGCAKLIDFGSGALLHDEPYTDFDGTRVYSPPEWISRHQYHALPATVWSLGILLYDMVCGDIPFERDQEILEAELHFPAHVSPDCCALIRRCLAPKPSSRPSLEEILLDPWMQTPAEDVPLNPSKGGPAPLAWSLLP

Row | SMILES | IC50 [1] [nM] | IC50 [2] [nM] | EC50 [3] [nM] | IC50 [4] [nM]
1 | C[C@H]1C[C@@H](c2ccncc2NC(=O)c2ccc(F)c(-c3c(F)cc(C4CCS(=O)(=O)CC4)cc3F)n2)C[C@@H](O)C1(C)O (stereo in doubt) [Example 120, N-(4-((1R,3R,4S,5S)-3,4-dihydroxy-4,5-dimethylcyclohexyl)pyridin-3-yl)-6-(4-(1,1-dioxidotetrahydro-2H-thiopyran-4-yl)-2,6-difluorophenyl)-5-fluoropicolinamide] | 48.7 | 31.5 | 723 | 0.26
2 | C[C@H]1C[C@@H](c2ccncc2NC(=O)c2ccc(F)c(-c3c(F)ccc(OCCO)c3F)n2)C[C@@H](N)[C@]1(C)O [Example 3, N-(4-((1R,3R,4R,5S)-3-amino-4-hydroxy-4,5-dimethylcyclohexyl)pyridin-3-yl)-6-(2,6-difluoro-3-(2-hydroxyethoxy)phenyl)-5-fluoropicolinamide] | 10.6 | 1.94 | 126 | 0.1
3 | COCCOc1ccc(F)c(-c2nc(C(=O)Nc3cnccc3[C@H]3C[C@@H](N)[C@](C)(O)[C@@H](C)C3)ccc2F)c1F [Example 6, N-(4-((1R,3R,4R,5S)-3-amino-4-hydroxy-4,5-dimethylcyclohexyl)pyridin-3-yl)-6-(2,6-difluoro-3-(2-methoxyethoxy)phenyl)-5-fluoropicolinamide] | 24.9 | 2.4 | 202 | 0.14
4 | COCCOc1cc(F)c(-c2nc(C(=O)Nc3cnccc3[C@H]3C[C@@H](N)[C@](C)(O)[C@@H](C)C3)ccc2F)c(F)c1 [Example 7, N-(4-((1R,3R,4R,5S)-3-amino-4-hydroxy-4,5-dimethylcyclohexyl)pyridin-3-yl)-6-(2,6-difluoro-4-(2-methoxyethoxy)phenyl)-5-fluoropicolinamide] | 6.31 | 2.09 | 57 | 0.08
5 | CSc1cc(F)c(-c2nc(C(=O)Nc3cnccc3[C@H]3C[C@@H](N)[C@](C)(O)[C@@H](C)C3)ccc2F)c(F)c1 [Example 8, N-(4-((1R,3R,4R,5S)-3-amino-4-hydroxy-4,5-dimethylcyclohexyl)pyridin-3-yl)-6-(2,6-difluoro-4-(methylthio)phenyl)-5-fluoropicolinamide] | 6.98 | 2.04 | 234 | 0.08
6 | C[C@H]1C[C@@H](c2ccncc2NC(=O)c2ccc(F)c(-c3c(F)cc(S(C)(=O)=O)cc3F)n2)C[C@@H](O)[C@]1(C)O [Example 9, 6-(2,6-difluoro-4-(methylsulfonyl)phenyl)-N-(4-((1R,3R,4R,5S)-3,4-dihydroxy-4,5-dimethylcyclohexyl)pyridin-3-yl)-5-fluoropicolinamide] | 1010 | 1620 | 4700 | 8.54
7 | C[C@@H]1C[C@H](c2ccncc2NC(=O)c2ccc(F)c(-c3c(F)cc(S(C)(=O)=O)cc3F)n2)C[C@H](O)[C@@]1(C)O [Example 10, 6-(2,6-difluoro-4-(methylsulfonyl)phenyl)-N-(4-((1S,3S,4S,5R)-3,4-dihydroxy-4,5-dimethylcyclohexyl)pyridin-3-yl)-5-fluoropicolinamide] | 7110 | 4150 | > 10000 | 14.6
8 | Cc1cc(F)c(-c2nc(C(=O)Nc3cnccc3[C@H]3C[C@@H](C)[C@](C)(O)[C@@H](N)C3)ccc2F)c(F)c1 [Example 14, N-(4-((1S,3S,4S,5R)-3-amino-4-hydroxy-4,5-dimethyl-cyclohexyl)pyridin-3-yl)-6-(2,6-difluoro-4-methylphenyl)-5-fluoropicolinamide] | 776 | 231 | 5040 | 13.7
9 | C[C@H]1C[C@@H](c2ccncc2NC(=O)c2nc(-c3c(F)cccc3F)ccc2N)C[C@@H](O)[C@@]1(O)CF [Example 18, 3-amino-6-(2,6-difluorophenyl)-N-(4-((1R,3R,4R,5S)-4-(fluoromethyl)-3,4-dihydroxy-5-methylcyclohexyl)pyridin-3-yl) picolinamide] | 47 | 10.2 | 714 | 0.67
10 | COc1cc(F)c(-c2nc(C(=O)Nc3cnccc3[C@H]3C[C@@H](O)[C@](C)(O)[C@@H](C)C3)ccc2F)c(F)c1 [Example 22, 6-(2,6-difluoro-4-methoxyphenyl)-N-(4-((1R,3R,4R,5S)-3,4-dihydroxy-4,5-dimethylcyclohexyl)pyridin-3-yl)-5-fluoropicolinamide] | 201 | 39.5 | 382 | 0.85
11 | C[C@H]1C[C@@H](c2ccncc2NC(=O)c2ccc(F)c(-c3c(F)cc(C4(F)COC4)cc3F)n2)C[C@@H](N)[C@]1(C)O [Example 69, N-(4-((1R,3R,4R,5S)-3-amino-4-hydroxy-4,5-dimethylcyclohexyl)pyridin-3-yl)-6-(2,6-difluoro-4-(3-fluorooxetan-3-yl)phenyl)-5-fluoropicolinamide] | 6.42 | 4.2 | 423 | 0.09
12 | C[C@H]1C[C@@H](c2ccncc2NC(=O)c2ccc(F)c(-c3c(F)cc(C(C)(C)O)cc3F)n2)C[C@@H](O)[C@]1(C)O [Example 73, 6-(2,6-difluoro-4-(2-hydroxypropan-2-yl)phenyl)-N-(4-((1R,3R,4R,5S)-3,4-dihydroxy-4,5-dimethylcyclohexyl)pyridin-3-yl)-5-fluoropicolinamide] | 156 | 63.1 | 189 | 0.42

Now those with a lower IC50 [1], led by results:

Row | IC50 [1] [nM] | IC50 [2] [nM] | EC50 [3] [nM] | IC50 [4] [nM] | SMILES
13 | 2.68 | 1.33 | 59 | 0.05 | CCc1cc(F)c(-c2nc(C(=O)Nc3cnccc3[C@H]3C[C@@H](N)[C@](C)(O)[C@@H](C)C3)ccc2F)c(F)c1 [Example 2, N-(4-((1R,3R,4R,5S)-3-amino-4-hydroxy-4,5-dimethylcyclohexyl)pyridin-3-yl)-6-(4-ethyl-2,6-difluorophenyl)-5-fluoropicolinamide]
14 | 4.33 | 2.43 | 34 | 0.09 | COCc1cc(F)c(-c2nc(C(=O)Nc3cnccc3[C@H]3C[C@@H](N)[C@](C)(O)[C@@H](C)C3)ccc2F)c(F)c1 [Example 4, N-(4-((1R,3R,4R,5S)-3-amino-4-hydroxy-4,5-dimethylcyclohexyl)pyridin-3-yl)-6-(2,6-difluoro-4-(methoxymethyl)phenyl)-5-fluoropicolinamide]
15 | 4.33 | 1.16 | 42 | 0.07 | Cc1cc(F)c(-c2nc(C(=O)Nc3cnccc3[C@H]3C[C@@H](N)[C@](C)(O)[C@@H](C)C3)ccc2F)c(F)c1 [Example 13, N-(4-((1R,3R,4R,5S)-3-amino-4-hydroxy-4,5-dimethylcyclohexyl)pyridin-3-yl)-6-(2,6-difluoro-4-methylphenyl)-5-fluoropicolinamide]
16 | 1.54 | 0.54 | 165 | 0.02 | CC(C)Oc1cc(F)c(-c2nc(C(=O)Nc3cnccc3[C@H]3C[C@@H](N)[C@](C)(O)[C@@H](C)C3)ccc2F)c(F)c1 [Example 64, N-(4-((1R,3R,4R,5S)-3-amino-4-hydroxy-4,5-dimethylcyclohexyl)pyridin-3-yl)-6-(2,6-difluoro-4-isopropoxyphenyl)-5-fluoropicolinamide]
17 | 2.14 | 0.73 | 38 | 0.03 | C[C@H]1C[C@@H](c2ccncc2NC(=O)c2ccc(F)c(-c3c(F)cc(OC4CCOCC4)cc3F)n2)C[C@@H](N)[C@]1(C)O [Example 65, N-(4-((1R,3R,4R,5S)-3-amino-4-hydroxy-4,5-dimethylcyclohexyl)pyridin-3-yl)-6-(2,6-difluoro-4-(tetrahydro-2H-pyran-4-yloxy)phenyl)-5-fluoropicolinamide]
18 | 2.92 | 1.64 | 13 | 0.03 | C[C@H]1C[C@@H](c2ccncc2NC(=O)c2ccc(F)c(-c3c(F)cc(C(C)(C)O)cc3F)n2)C[C@@H](N)[C@]1(C)O [Example 66]
19 | 2.5 | 0.96 | 127 | 0.01 | C[C@H]1C[C@@H](c2ccncc2NC(=O)c2ccc(F)c(-c3c(F)cc(C4CC4)cc3F)n2)C[C@@H](N)[C@]1(C)O [Example 67, N-(4-((1R,3R,4R,5S)-3-amino-4-hydroxy-4,5-dimethylcyclohexyl)pyridin-3-yl)-6-(4-cyclopropyl-2,6-difluorophenyl)-5-fluoropicolinamide]
20 | 2.21 | 1.73 | 136 | 0.04 | C[C@H]1C[C@@H](c2ccncc2NC(=O)c2ccc(F)c(-c3c(F)cc(C4(F)CCOCC4)cc3F)n2)C[C@@H](N)[C@]1(C)O [Example 70, N-(4-((1R,3R,4R,5S)-3-amino-4-hydroxy-4,5-dimethylcyclohexyl)pyridin-3-yl)-6-(2,6-difluoro-4-(4-fluorotetrahydro-2H-pyran-4-yl)phenyl)-5-fluoropicolinamide]
21 | 1.47 | 0.72 | 81 | 0.02 | C[C@H]1C[C@@H](c2ccncc2NC(=O)c2ccc(F)c(-c3c(F)cc(C4CCOCC4)cc3F)n2)C[C@@H](N)[C@]1(C)O [Example 71, N-(4-((1R,3R,4R,5S)-3-amino-4-hydroxy-4,5-dimethylcyclohexyl)pyridin-3-yl)-6-(2,6-difluoro-4-(tetrahydro-2H-pyran-4-yl)phenyl)-5-fluoropicolinamide]
